According to ChEMBL document CHEMBL5725372, “Inhibitors of sodium glucose cotransporter 1” (2017):

Biological target: T1, Sodium/glucose cotransporter 2 (Homo sapiens, UniProt P31639)
T1 sequence (P31639 whole entry): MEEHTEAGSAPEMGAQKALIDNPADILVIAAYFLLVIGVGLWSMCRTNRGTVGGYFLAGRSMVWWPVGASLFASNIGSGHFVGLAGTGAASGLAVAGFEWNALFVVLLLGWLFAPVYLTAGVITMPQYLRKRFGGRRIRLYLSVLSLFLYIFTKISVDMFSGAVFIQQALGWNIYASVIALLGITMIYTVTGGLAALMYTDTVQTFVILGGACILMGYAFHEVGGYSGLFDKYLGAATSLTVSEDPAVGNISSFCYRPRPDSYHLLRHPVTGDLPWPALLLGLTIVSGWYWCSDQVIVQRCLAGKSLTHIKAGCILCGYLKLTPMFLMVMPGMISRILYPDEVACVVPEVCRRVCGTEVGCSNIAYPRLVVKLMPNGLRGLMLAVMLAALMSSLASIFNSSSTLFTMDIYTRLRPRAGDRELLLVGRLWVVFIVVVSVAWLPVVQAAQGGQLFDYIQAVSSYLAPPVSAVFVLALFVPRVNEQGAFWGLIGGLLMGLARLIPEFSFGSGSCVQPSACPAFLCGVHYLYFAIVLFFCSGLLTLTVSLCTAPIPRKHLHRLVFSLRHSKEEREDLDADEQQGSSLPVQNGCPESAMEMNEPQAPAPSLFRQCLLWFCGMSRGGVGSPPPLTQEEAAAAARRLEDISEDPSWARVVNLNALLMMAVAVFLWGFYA
Assay: In Vitro Human SGLT2 Inhibition Assay: Human sodium/glucose co-transporter type 2 (SGLT2; accession number P31639; GI:400337) was cloned into pIRESpuro2 vector for mammalian expression (construct: HA-SGLT2-pIRESpuro2). HEK293 cells were transfected with the human HA-SGLT2-pIRESpuro2 vector and the bulk stable cell line was selected in presence of 0.5 μg/mL of puromycin. Human HA-SGLT2 cells were maintained in DMEM media containing 10% FBS, 1% GPS and 0.5 μg/mL of puromycin. The HEK293 cells expressing the human HA-SGLT2 were seeded in 384 well plates (30,000 cells/well) in DMEM media containing 10% FBS, 1% GPS and 0.5 μg/mL of puromycin, then incubated overnight at 37 C, 5% CO2. Cells were then washed with uptake buffer (140 mM NaCl, 2 mM KCl, 1 mM CaCl2, 1 mM MgCl2, 10 mM HEPES, 5 mM Tris, 1 mg/mL bovine serum albumin (BSA), pH 7.3). Twenty microliters of uptake buffer with or without testing compounds were added to the cells. Then, 20 microliters of uptake buffer containing 14C-AMG (100 nCi) were added to the cells. The cell plates were incubated at 37° C., 5% CO2 for 1-2 hours. After washing the cells with uptake buffer, scintillation fluid was added (40 microliters/well) and 14C-AMG uptake was measured by counting radioactivity using a scintillation coulter ([…]; Packard Instruments).

IC50: < 10 nM
SMILES: CS[C@H]1O[C@@H](c2ccc(C)c(Cc3ccc(OCCNC(=O)NC(C)(C)CO)cc3)c2)[C@H](O)[C@@H](O)[C@@H]1O
